Data published in patent publication US5284834A, “Adenosine functionalized congeners as cardiovascular treating agents for animals and methods for using same” (priority 1992, dated 1994).
Entries after “also recorded” stand apart in the source; their conditions may differ. Like-named read-outs stand apart in the source and are kept apart here.

Key:
[1] = target: T1, Coronary A2-Adenosine Receptor (Canis lupus familiaris, UniProt P11617); test: Coronary vasoactivity in the anesthetized, open-chest dog (intracoronary infusion; MPR from EC50); assay type: in vivo; conditions: for coronary vasoactivity (in words): intracoronary infusion; for A2 Receptor MPR Relative to MeAdo: molar potency ratio relative to N6-methyladenosine (set equal to 1.0); for A2 Receptor MPR Relative to MeAdo / A2 Receptor MPR Relative to Ado: coronary; for A2 Receptor MPR Relative to Ado: molar potency ratio: EC50 of adenosine divided by that of the analogue; for A2/A1 potency ratio (MPR(A2)/MPR(A1)): ratio of MPR (MeAdo) at dog coronary A2 receptor to MPR at rat brain A1 receptor; for A2 versus A1 receptor selectivity (in words): dog coronary A2 versus rat brain A1
T1 construct: The assay of coronary vasoactivity in the anesthetized, open-chest dog; from tissue; host or cells: coronary vessels in situ, anesthetized open-chest dog
T1 sequence (P11617 whole entry, the tested form may be a part): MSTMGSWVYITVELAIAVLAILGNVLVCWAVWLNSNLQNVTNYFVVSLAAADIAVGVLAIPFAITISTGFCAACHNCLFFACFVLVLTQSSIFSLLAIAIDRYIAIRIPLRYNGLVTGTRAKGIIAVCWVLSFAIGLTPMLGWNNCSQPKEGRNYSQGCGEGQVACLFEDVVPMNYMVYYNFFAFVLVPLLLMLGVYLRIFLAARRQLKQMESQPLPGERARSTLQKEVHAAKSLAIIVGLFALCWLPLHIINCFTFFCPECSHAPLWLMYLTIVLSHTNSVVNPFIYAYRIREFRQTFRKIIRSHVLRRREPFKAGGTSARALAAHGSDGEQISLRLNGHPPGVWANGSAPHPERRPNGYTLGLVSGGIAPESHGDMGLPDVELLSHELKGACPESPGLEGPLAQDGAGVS
Excerpt: (§1) In the present invention there is compared the A1 - and A2 -potencies of a series of long-chain derivatives of adenosine suitable for attachment to "carriers," such as peptides or proteins, and for immobilization to polymeric matrices for affinity chromatography of adenosine receptors. The method employed is a comparison of increasing coronary blood flow via activation of an A2 -adenosine receptor versus an A1 -binding assay in rat brain.
(§2) The potencies at A2 -receptors (Table 1) are expressed as a molar potency ratio of the EC50 value of adenosine divided by that of the adenosine analogue. A common reference compound on which to base molar potency ratios was needed to facilitate comparison of activities at A1 and A2 receptors. Adenosine itself cannot be used as a reference in the A1 binding assay since treatment of the membranes with adenosine deaminase is essential. […] Thus, MeAdo was used as a suitable reference compound.
The assay of coronary vasoactivity in the anesthetized, open-chest dog, is described by Kusachi et al, J. Med. Chem., in press, and Olsson, et al, J. Circ. […] The assay estimates an EC-50, the concentration of analogue which produces a half maximum change in coronary conductance (reciprocal resistance). To reduce between-animal variability activity is expressed as a molar potency ratio (MPR) the value of the EC-50 of adenosine divided by that of the analogue. Owing to the low water solubility of some of the analogues, solutions for intracoronary infusion were prepared by diluting stock solutions in dimethyl sulfoxide. In such instances, solutions of adenosine used to establish a standard of potency also contained dimethyl sulfoxide. […]

[2] = target: T2, A2-adenosine receptor (adenylate cyclase, human platelet membranes) (Homo sapiens, UniProt P29274); test: Stimulation of adenylate cyclase in human platelet membranes; assay type: biochemical
T2 construct: stimulation of adenylate cyclase in human platelet membranes; from tissue; host or cells: human platelet membranes
T2 sequence (P29274 whole entry): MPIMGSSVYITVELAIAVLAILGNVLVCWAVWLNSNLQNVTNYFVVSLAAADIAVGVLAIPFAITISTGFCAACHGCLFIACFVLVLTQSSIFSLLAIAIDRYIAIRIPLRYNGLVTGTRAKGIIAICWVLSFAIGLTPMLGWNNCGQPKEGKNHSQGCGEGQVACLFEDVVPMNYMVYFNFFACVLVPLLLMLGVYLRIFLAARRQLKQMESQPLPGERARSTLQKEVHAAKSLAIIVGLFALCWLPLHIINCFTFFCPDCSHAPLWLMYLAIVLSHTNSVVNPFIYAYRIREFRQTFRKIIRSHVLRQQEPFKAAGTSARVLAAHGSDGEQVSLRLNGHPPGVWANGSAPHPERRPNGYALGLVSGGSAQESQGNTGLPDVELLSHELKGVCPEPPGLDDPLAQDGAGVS

[3] = target: T3, Brain A1-adenosine receptor (Rattus norvegicus, UniProt P25099); test: A1-binding assay: antagonism of binding of 1nM [3H]N6-cyclohexyladenosine to rat cerebral cortical membranes; conditions: for A1 Receptor MPR Relative to MeAdo: molar potency ratio derived from Ki values, rat cerebral cortical membranes
T3 construct: -cyclohexyladenosine to rat cerebral cortical membranes; from tissue; host or cells: rat cerebral cortical membranes
T3 sequence (P25099 1-326): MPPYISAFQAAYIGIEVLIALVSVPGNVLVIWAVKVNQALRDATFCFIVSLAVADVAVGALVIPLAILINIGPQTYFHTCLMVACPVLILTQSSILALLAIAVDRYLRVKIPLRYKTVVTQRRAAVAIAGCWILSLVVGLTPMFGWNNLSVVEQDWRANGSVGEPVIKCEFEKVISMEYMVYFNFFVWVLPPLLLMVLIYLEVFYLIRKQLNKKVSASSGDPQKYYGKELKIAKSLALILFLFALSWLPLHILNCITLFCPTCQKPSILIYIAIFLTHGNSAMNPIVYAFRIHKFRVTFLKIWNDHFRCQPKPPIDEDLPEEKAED
Excerpt: as §1
^b Molar potency ratio relative to adenosine, derived from Ki
values for antagonism of binding of 1nM [^3 H]N^6
-cyclohexyladenosine to rat cerebral cortical membranes.
as §2

[4] = Octanol water partition coefficients; assay type: physicochemical; conditions: for logP: octanol water, read-out: octanol water partition coefficient
Excerpt: B. Certain of the conjugates have ionizable groups on the attached chain. These groups alter the biodistribution of the compounds and make them less likely to enter the brain and produce central depressant effects. The effect of charged groups is reflected in octanol water partition coefficients as follows: […]

A1-receptors = conditions: background; cited from earlier work
A2-receptors = conditions: background; cited from earlier work
[5] = Entry into the brain and central side effects; conditions: in vivo

| A1 Receptor MPR Relative to MeAdo [3] | A2 Receptor MPR Relative to MeAdo ([1]; dog) | A2 Receptor MPR Relative to Ado ([1]; dog) | A2/A1 potency ratio (MPR(A2)/MPR(A1)) [1] | Molecule | coronary vasoactivity (in words) ([1]; dog) | other results |
| --- | --- | --- | --- | --- | --- | --- |
| 0.29 | – | – | – | O=C(O)Cc1ccc(Nc2ncnc3c2ncn3[C@@H]2O[C@H](CO)[C@@H](O)[C@H]2O)cc1 [Compound 8, N^6-(4-carboxymethylphenyl)adenosine] | only weakly active | % increase in flow over control ([1]; @ 21 μM plasma nucleoside concentration achieved during infusion): 27%; IC50 ([2]; human platelet membranes, read-out: IC50 (printed lC50), stimulation of adenylate cyclase): 26 µM; A1-binding activity (in words) [3]: only weakly active; polarity compared with compound 4 [4]: considerably more polar than 4; logP [4]: < -1.4 |
| 24 | 64 | 33.2 ± 1.6 | 2.7 | COC(=O)Cc1ccc(NC(=O)Cc2ccc(Nc3ncnc4c3ncn4[C@@H]3O[C@H](CO)[C@@H](O)[C@H]3O)cc2)cc1 [Compound 13] | – | – |
| 35 | 42 | 2.1 ± 1.3 | 1.2 | Cc1ccc(NC(=O)Cc2ccc(Nc3ncnc4c3ncn4[C@@H]3O[C@H](CO)[C@@H](O)[C@H]3O)cc2)cc1 [Compound 10] | enhanced activity at both receptor subtypes | A1-binding activity (in words) [3]: enhanced activity at both receptor subtypes |
| 4.6 | 88 | 4.4 ± 0.4 | greater than 10 | CNC(=O)CNC(=O)[C@H](Cc1ccc(NC(=O)Cc2ccc(Nc3ncnc4c3ncn4[C@@H]3O[C@H](CO)[C@@H](O)[C@H]3O)cc2)cc1)NC(=O)OC(C)(C)C [Compound 12] | – | A2/A1 potency ratio (MPR(A2)/MPR(A1)) ([1]; listed as drawing 7): 19 |
| – | – | – | – | CCNC(=O)[C@H]1O[C@@H](n2cnc3c(N)ncnc32)[C@H](O)[C@@H]1O [Compound 1, N-Ethyladenosine-5'-uronamide] | exceptionally potent | order of potency at A1-receptors (A1-receptors): R-PIA, CHA>NECA>S-PIA; potency at A2-receptors (rank in words) (A2-receptors): clearly the most potent |
| – | – | – | – | OC[C@H]1O[C@@H](n2cnc3c(NC4CCCCC4)ncnc32)[C@H](O)[C@@H]1O [Compound 5, N^6 -cyclohexyladenosine] | – | order of potency at A1-receptors (A1-receptors): R-PIA, CHA>NECA>S-PIA |
| 1.0 | 1.0 | 0.05 | 1.0 | CNc1ncnc2c1ncn2[C@@H]1O[C@H](CO)[C@@H](O)[C@H]1O [Compound 3, N^6 -methyladenosine, reference compound] | – | fold weaker than adenosine at A2-receptors ([1]; dog, in vivo): ≥ 20 -fold; fold weaker than adenosine at A1-receptors [3]: at least 10 -fold |
| 3.3 | 60 | 3.0 ± 0.7 | greater than 10 | COC(=O)[C@H](Cc1ccc(NC(=O)Cc2ccc(Nc3ncnc4c3ncn4[C@@H]3O[C@H](CO)[C@@H](O)[C@H]3O)cc2)cc1)NC(=O)C(F)(F)F [Compound 11] | – | A2/A1 potency ratio (MPR(A2)/MPR(A1)) ([1]; listed as drawing 6): 18 |
| – | – | – | – | Avidin | lacked coronary vasoactivity | – |
| 13 | 56 | 2.8 ± 0.1 | 4.2 | O=C(CCc1ccc(O)cc1)NCCNC(=O)Cc1ccc(NC(=O)Cc2ccc(Nc3ncnc4c3ncn4[C@@H]3O[C@H](CO)[C@@H](O)[C@H]3O)cc2)cc1 [Compound 17] | – | – |
| 5.5 | 60 | 3.0 ± 0.2 | – | O=C(CCCC[C@@H]1SC[C@@H]2NC(=O)N[C@@H]21)NCCNC(=O)Cc1ccc(NC(=O)Cc2ccc(Nc3ncnc4c3ncn4[C@@H]3O[C@H](CO)[C@@H](O)[C@H]3O)cc2)cc1 [Compound 18] | – | A2 versus A1 receptor selectivity (in words) [1]: highly divergent at A1 and A2 receptors |
| – | – | – | – | C[C@H](Cc1ccccc1)Nc1ncnc2c1ncn2[C@@H]1O[C@H](CO)[C@@H](O)[C@H]1O [Compound 4, N^6 -R-1-Phenyl-2-propyladenosine] | – | brain entry [5]: enters the brain; central side effects [5]: produces central side effects; order of potency at A1-receptors (A1-receptors): R-PIA, CHA>NECA>S-PIA; logP [4]: 2 |
| 9.0 | ≥ 100 | 7.2 ± 1443 | – | CNC(=O)Cc1ccc(NC(=O)Cc2ccc(Nc3ncnc4c3ncn4[C@@H]3O[C@H](CO)[C@@H](O)[C@H]3O)cc2)cc1 [Compound 14] | three most active analogues | A2 versus A1 receptor selectivity (in words) [1]: highly divergent at A1 and A2 receptors |
| – | – | – | – | CNC(=O)Cc1ccc(Nc2ncnc3c2ncn3[C@@H]2O[C@H](CO)[C@@H](O)[C@H]2O)cc1 [Compound 9] | enhanced activity at both receptor subtypes | – |
| – | – | – | – | C[C@@H](Cc1ccccc1)Nc1ncnc2c1ncn2[C@@H]1O[C@H](CO)[C@@H](O)[C@H]1O [S-PIA] | – | order of potency at A1-receptors (A1-receptors): R-PIA, CHA>NECA>S-PIA |
| 24 | 27 | 1.35 | 1.1 | Cc1ccc(Nc2ncnc3c2ncn3[C@@H]2O[C@H](CO)[C@@H](O)[C@H]2O)cc1 [Compound 7, N^6 -p-tolyladenosine, reference compound] | can exhibit some activity at this A2 -receptor | – |
| 13 | 70 | 3.5 ± 0.8 | 5.3 | NNC(=O)Cc1ccc(NC(=O)Cc2ccc(Nc3ncnc4c3ncn4[C@@H]3O[C@H](CO)[C@@H](O)[C@H]3O)cc2)cc1 [Compound 15] | – | – |

| Molecule | A1 Receptor MPR Relative to MeAdo [3] | A2 Receptor MPR Relative to MeAdo ([1]; dog) | A2 Receptor MPR Relative to Ado ([1]; dog) | A2/A1 potency ratio (MPR(A2)/MPR(A1)) [1] | coronary vasoactivity (in words) ([1]; dog) | other results |
| --- | --- | --- | --- | --- | --- | --- |
| OC[C@H]1O[C@@H](n2cnc3c(Nc4ccccc4)ncnc32)[C@H](O)[C@@H]1O [Compound 6, N^6 -phenyladenosine, reference compound] | 18 | 28 | 1.4 | 1.6 | can exhibit some activity at this A2 -receptor | – |
| Nc1nc(Cl)nc2c1ncn2[C@@H]1O[C@H](CO)[C@@H](O)[C@H]1O [Compound 2, 2-Chloroadenosine, reference compound] | 10 | 540 | 27 | 54 | – | – |
| NCCNC(=O)Cc1ccc(NC(=O)Cc2ccc(Nc3ncnc4c3ncn4[C@@H]3O[C@H](CO)[C@@H](O)[C@H]3O)cc2)cc1 [Compound 16] | – | – | 7.8 ± 2.5 | – | three most active analogues; also recorded: high efficacy as a coronary vasodilator | IC50 [2]: 0.98 µM; polarity compared with compound 4 [4]: considerably more polar than 4; logP [4]: -0.81 |
